Assay results as given in patent US20110152094A1, “Herbicidal compositions comprising flufenacet” (Bayer CropScience AG, priority 2009, published 2011).

Assays:
[1] = tested on: MATCH resistant (Matricaria chamomilla); assay: Greenhouse trial, PE application on resistant biotypes (test method 8); type: in vivo; conditions: resistant biotype, g of AS/ha: (A) 90, (B) 1200, (A)+(B) 90 + 1200, (C) 10
Method: (§1) In the standard design of the test, seeds of various broad-leaved weed and weed grass biotypes (origins) were sown in a 8-13 cm diameter pot filled with natural soil of a standard field soil (loamy silt; non-sterile) and covered with a covering soil layer of about 1 cm. The pots were then cultivated in a greenhouse (12-16 h of light, temperature day 20-22° C., night 15-18° C.) until the time of application. The pots were treated on a laboratory track sprayer with spray liquors comprising the compositions according to the invention, mixtures of the prior art or components used individually. Application of the active compounds or active compound combinations formulated as WG, WP, EC or otherwise was carried out at the appropriate growth stages of the plants. The application rate for the spray application was 100-600 l of water/ha. After the treatment, the plants were returned to the greenhouses.
(§2) About 3 weeks after the application, the soil action or/and foliar action was assessed visually according to a scale of 0-100% in comparison to an untreated comparative group: 0%=no noticeable effect compared to the untreated comparative group; 100%=full effect compared to the untreated comparative group.
(§3) (notes: the term “seeds” also includes vegetative propagation forms such as, for example, rhizome pieces; abbreviations used: h light=hours of illumination, g of AS/ha=gram of active substance per hectare, l/ha=liter per hectare, S=sensitive, R=resistant) • 1. Pre-emergence action against weeds: seeds of various broad-leaved weed and weed grass biotypes (origins) were sown in a 8-13 cm diameter pot filled with natural soil of a standard field soil (loamy silt; non-sterile) and covered with a covering soil layer of about 1 cm. The pots were then cultivated in a greenhouse (12-16 h of light, temperature day 20-22° C., night 15-18° C.) until the time of application. The pots were treated at the BBCH stage 00-10 of the seeds/plants on a laboratory track sprayer with spray liquors comprising the compositions according to the invention, mixtures or components used individually, as WG, WP, EC or other formulations. The application rate for the spray application was 100-600 l of water/ha. After the treatment, the plants were returned to the greenhouses and, when required, treated with fertilizer and watered. • 2. Post-emergence action against weeds: seeds of various broad-leaved weed and weed grass biotypes (origins) were sown in a 8-13 cm diameter pot filled with natural soil of a standard field soil (loamy silt; non-sterile) and covered with a covering soil layer of about 1 cm. The pots were then cultivated in a greenhouse (12-16 h of light, temperature day 20-22° C., night 15-18° C.) until the time of application. The pots were treated at various BBCH stages between 11-25 of the seeds/plants, i.e. generally between two to three weeks after the start of the cultivation, on a laboratory track sprayer with spray liquors comprising the compositions according to the invention, mixtures or components used individually, as WG, WP, EC or other formulations. The application rate for the spray application was 100-600 l of water/ha. After the treatment, the plants were returned to the greenhouses and, when required, treated with fertilizer and watered. • 3. Selective pre-emergence action: seeds of various crop species (origins) were sown in a 8-13 cm diameter pot filled with natural soil of a standard field soil (loamy silt; non-sterile) and covered with a covering soil layer of about 1 cm. The pots were then cultivated in a greenhouse (12-16 h of light, temperature day 20-22° C., night 15-18° C.) until the time of application. The pots were treated at the BBCH stage 00-10 of the seeds/plants on a laboratory track sprayer with spray liquors comprising the compositions according to the invention, mixtures or components used individually, as WG, WP, EC or other formulations. The application rate for the spray application was 100-600 l of water/ha. […]

[2] = tested on: MATCH sensitive (Matricaria chamomilla); assay: as above; type: in vivo; conditions: sensitive biotype, g of AS/ha: (A) 90, (B) 1200, (A)+(B) 90 + 1200, (C) 10
Method: as §1, §2, §3

COc1nc(C)nc(NC(=O)NS(=O)(=O)c2cc(I)ccc2C(=O)O)n1 [(C) iodosulfuron, iodosulfuron]
activity MATCH resistant (visual assessment, scale 0-100% vs untreated) [1]: 60%
activity MATCH sensitive (visual assessment, scale 0-100% vs untreated) [2]: 100%
